Where two headings read alike, the source gives them in different places.
Legend:
CETP = target: T1, CETP (Homo sapiens, UniProt P11597); conditions: TULIP, cited from earlier work
T1 construct: endogenous in cells; host or cells: trial patients (in vivo, circulating plasma CETP)
T1 sequence (P11597 18-493): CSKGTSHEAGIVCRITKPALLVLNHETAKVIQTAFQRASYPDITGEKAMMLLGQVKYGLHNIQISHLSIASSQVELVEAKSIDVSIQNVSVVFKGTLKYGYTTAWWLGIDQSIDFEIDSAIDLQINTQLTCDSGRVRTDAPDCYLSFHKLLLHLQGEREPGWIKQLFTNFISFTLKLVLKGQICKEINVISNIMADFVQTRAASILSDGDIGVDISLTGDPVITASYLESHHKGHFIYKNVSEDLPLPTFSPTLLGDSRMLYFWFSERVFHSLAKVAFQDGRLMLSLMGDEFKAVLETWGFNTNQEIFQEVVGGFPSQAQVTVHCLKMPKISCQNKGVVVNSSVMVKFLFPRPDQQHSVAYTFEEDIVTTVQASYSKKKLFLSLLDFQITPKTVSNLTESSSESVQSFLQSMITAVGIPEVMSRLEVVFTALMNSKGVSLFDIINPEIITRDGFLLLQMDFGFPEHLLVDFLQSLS

[1] = Phase 2 study: plasma obicetrapib concentrations during PK follow-up after end of treatment; format: in vivo, human
Experimental: The screening period for this study took up to 2-weeks. Afterwards patients were randomized to placebo, 5 mg obicetrapib or 10 mg obicetrapib for an 8-week treatment period. After the treatment period, patients continued for a 4-week safety follow-up and a 15-week PK follow-up.
(§1) The primary outcome measure was LDL-C (percent change). Secondary outcome measures included ApoB, Non-HDL-C and HDL-C (percent change). The Intent-to-Treat (ITT) Population included all participants randomized into the study. The Modified ITT (mITT) Population included all participants in the ITT Population who receive at least 1 dose of any study drug and have a baseline value for the LDL-C assessment. The Safety Population included all participants who receive at least 1 dose of any study drug. The mITT Population was the primary population for the efficacy analyses. The primary efficacy analysis of the percent change in LDL-C was performed using a mixed model for repeated measures (MMRM) approach. In order to maintain the overall Type I error rate, the secondary efficacy endpoints were tested sequentially at the 0.05 significance level according to the pre-specified order of hierarchy. All safety endpoints were summarized descriptively. No statistical inference was applied to the safety endpoints. Plasma obicetrapib concentrations were summarized with descriptive statistics based on the PK Population.

[2] = Phase 2 study of obicetrapib as adjunct to high-intensity statin therapy: safety and tolerability (adverse events, laboratory values, vital signs); format: in vivo, human; conditions: for Neoplasms benign, malignant and unspecified: including cysts and polyps; for AEs, total: subjects (%): safety population
Experimental: Patients were randomly assigned to receive one of the three treatments investigative treatments. All treatments were to be taken once daily with food for 8 weeks. Safety was assessed throughout the trial by monitoring adverse events and concomitant medication use, 12-lead electrocardiograms (ECGs), vital signs, laboratory safety assessments and physical examinations. Additional assessments included salivary cortisol, plasma aldosterone, high-sensitivity C-reactive protein (hsCRP) and endothelin 1.
Safety and tolerability profiles of obicetrapib assessed by clinical laboratory values and incidence of adverse events (AEs).
as §1

[3] = 5 mg group (N=40), listed as obicetrapib
[4] = 10 mg group (N=40), listed as obicetrapib
[5] = either obicetrapib treatment group (5 mg, 10 mg) compared with placebo

For `CCOC(=O)N1c2ccc(C(F)(F)F)cc2[C@@H](N(Cc2cc(C(F)(F)F)cc(C(F)(F)F)c2)c2ncc(OCCCC(=O)O)cn2)C[C@H]1CC` [Obicetrapib, (2R,4S)-4-{[3,5-bis(trifluoromethyl)benzyl]-[5-(3-carboxypropoxy)pyrimidin-2-yl]amino}-2-ethyl-6-trifluoromethyl-3,4-dihydro-2H-quinoline-1-carboxylic acid ethyl ester], the LDL-C reductions (CETP; 1 mg for 12 weeks, mild dyslipidemia) is given as 27%, the LDL-C reductions (CETP; 2.5 mg for 12 weeks, mild dyslipidemia) is given as 33% and the LDL-C reductions (CETP; 5 mg for 12 weeks, mild dyslipidemia) is given as 45%. The “incremental LDL-C reduction compared with statin monotherapy” value (CETP; 10 mg daily with 20 mg atorvastatin or 10 mg rosuvastatin, 12 weeks) was “up to 50%”, the LDL-C reductions (CETP; 10 mg for 12 weeks, mild dyslipidemia) was 45% and the LDL-C reductions (CETP; 10 mg obicetrapib plus 10 mg rosuvastatin) was 63%. For the same compound, the LDL-C reductions (CETP; 10 mg obicetrapib plus 20 mg atorvastatin) was 68%, the “Plasma obicetrapib levels decreased by (median)” value ([1]; 5 mg group, 4 weeks after the end-of-treatment) was 92% and the “Plasma obicetrapib levels decreased by (median)” value ([1]; 5 mg group, 8 weeks after the end-of-treatment) was 98%. The “Plasma obicetrapib levels decreased by (median)” value ([1]; 5 mg group, 15 weeks after the end-of-treatment) was 99%, the “Plasma obicetrapib levels decreased by (median)” value ([1]; 10 mg group, 4 weeks after the end-of-treatment) was 93% and the “Plasma obicetrapib levels decreased by (median)” value ([1]; 10 mg group, 8 weeks after the end-of-treatment) was 98%. For the same compound, the “Plasma obicetrapib levels decreased by (median)” value ([1]; 10 mg group, 15 weeks after the end-of-treatment) was 99%, the “nearly completely cleared from circulation by (time post-treatment)” value ([1]; after 8 weeks of once daily treatment) was 4-8 weeks and the Basal cell carcinoma ([2]; 5 mg (n=40)) was 0 (0.0) n (%). For the same compound, the Fatigue ([2]; 5 mg (n=40)) was 2 (5.0) n (%), the Gastrointestinal disorders ([2]; 5 mg (n=40)) was 3 (7.5) n (%) and the “General disorders and administration site conditions” value ([2]; 5 mg (n=40)) was 3 (7.5) n (%). For the same compound, the Hypertension ([2]; 5 mg (n=40)) was 2 (5.0) n (%), the Infections and infestations ([2]; 5 mg (n=40)) was 1 (2.5) n (%) and the “Injury, poisoning and procedural complications” value ([2]; 5 mg (n=40)) was 3 (7.5) n (%). For the same compound, the Investigations ([2]; 5 mg (n=40)) was 2 (5.0) n (%), the “Metabolism and nutrition disorders” value ([2]; 5 mg (n=40)) was 2 (5.0) n (%) and the Muscle spasms ([2]; 5 mg (n=40)) was 0 (0.0) n (%). For the same compound, the “Musculoskeletal and connective tissue disorders” value ([2]; 5 mg (n=40)) was 4 (10.0) n (%), the Nausea ([2]; 5 mg (n=40)) was 1 (2.5) n (%) and the Nervous system disorders ([2]; 5 mg (n=40)) was 2 (5.0) n (%). For the same compound, the “Respiratory, thoracic and mediastinal disorders” value ([2]; 5 mg (n=40)) was 2 (5.0) n (%), the “Type 2 diabetes mellitus” value ([2]; 5 mg (n=40)) was 2 (5.0) n (%) and the Vascular disorders ([2]; 5 mg (n=40)) was 2 (5.0) n (%). The “Neoplasms benign, malignant and unspecified” value ([2]; 5 mg (n=40)) was 0 (0.0) n (%), the “tolerability / safety profile” value ([2]; 5 mg and 10 mg on top of high intensity statin therapy) was “well tolerated with a safety profile similar to placebo” and the “AEs, related: number of events” value ([2]; 5 mg group (N=40)) was 2. The “AEs, related: subjects (%)” value ([2]; 5 mg group (N=40)) was 2 (5.0), the “AEs, severe” value ([2]; 5 mg group (N=40)) was 0 and the “AEs, total: number of events” value ([2]; 5 mg group (N=40)) was 24. The Deaths ([2]; 5 mg group (N=40)) was 0, the “SAEs, related” value ([2]; 5 mg group (N=40)) was 0 and the “SAEs, total” value ([2]; 5 mg group (N=40)) was 0. For the same compound, the “TEAEs leading to discontinuation of study drug” value ([2]; 5 mg group (N=40)) was 0, the “TESAEs leading to discontinuation of study” value ([2]; 5 mg group (N=40)) was 0 and the “AEs, total: subjects (%)” value ([2]; 5 mg group (N=40)) was 13 (32.5). The “AEs, total: subjects (%)” value [2, 3] was 15, the “AEs, related: subjects (%)” value [2, 3] was 2 and the Basal cell carcinoma ([2]; 10 mg (n=40)) was 0 (0.0) n (%). For the same compound, the Fatigue ([2]; 10 mg (n=40)) was 1 (2.5) n (%), the Gastrointestinal disorders ([2]; 10 mg (n=40)) was 0 (0.0) n (%) and the “General disorders and administration site conditions” value ([2]; 10 mg (n=40)) was 2 (5.0) n (%). The Hypertension ([2]; 10 mg (n=40)) was 0 (0.0) n (%), the Infections and infestations ([2]; 10 mg (n=40)) was 0 (0.0) n (%) and the “Injury, poisoning and procedural complications” value ([2]; 10 mg (n=40)) was 1 (2.5) n (%). The Investigations ([2]; 10 mg (n=40)) was 0 (0.0) n (%), the “Metabolism and nutrition disorders” value ([2]; 10 mg (n=40)) was 0 (0.0) n (%) and the Muscle spasms ([2]; 10 mg (n=40)) was 0 (0.0) n (%). For the same compound, the “Musculoskeletal and connective tissue disorders” value ([2]; 10 mg (n=40)) was 4 (10.0) n (%), the Nausea ([2]; 10 mg (n=40)) was 0 (0.0) n (%) and the Nervous system disorders ([2]; 10 mg (n=40)) was 2 (5.0) n (%). The “Respiratory, thoracic and mediastinal disorders” value ([2]; 10 mg (n=40)) was 0 (0.0) n (%), the “Type 2 diabetes mellitus” value ([2]; 10 mg (n=40)) was 0 (0.0) n (%) and the Vascular disorders ([2]; 10 mg (n=40)) was 0 (0.0) n (%). The “Neoplasms benign, malignant and unspecified” value ([2]; 10 mg (n=40)) was 0 (0.0) n (%), the “AEs, related: number of events” value ([2]; 10 mg group (N=40)) was 1 and the “AEs, related: subjects (%)” value ([2]; 10 mg group (N=40)) was 1 (2.5). For the same compound, the “AEs, severe” value ([2]; 10 mg group (N=40)) was 0, the “AEs, total: number of events” value ([2]; 10 mg group (N=40)) was 11 and the Deaths ([2]; 10 mg group (N=40)) was 0. The “SAEs, related” value ([2]; 10 mg group (N=40)) was 0, the “SAEs, total” value ([2]; 10 mg group (N=40)) was 0 and the “TEAEs leading to discontinuation of study drug” value ([2]; 10 mg group (N=40)) was 0. The “TESAEs leading to discontinuation of study” value ([2]; 10 mg group (N=40)) was 0, the “AEs, total: subjects (%)” value ([2]; 10 mg group (N=40)) was 8 (20.0) and the “AEs, total: subjects (%)” value [2, 4] was 8. For the same compound, the “AEs, related: subjects (%)” value [2, 4] was 1, the “laboratory parameters (chemistry, hematology, urinalysis)” value [2, 5] was “no signals in any laboratory parameters” and the vital signs [2, 5] was “no changes in vital signs”.
